Experimental data from ChEMBL document CHEMBL1201862, “PubChem BioAssay data set” (2004).
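Results reflect a 48-hour exposure of cells in 96-well plates to compound at five concentrations. GI50 is the concentration that inhibits growth by half.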 Calls of active or inactive are those of the source. No stated cut-off is given here; in the data, active = GI50 up to about 1.1 µM and inactive = higher.

Experiments:
Experiment in all cases: NCI-60 cell line screen, 48 h
M19-MEL = test system: M19-MEL
DMS-114 = test system: DMS-114
HOP-92 = test system: HOP-92
HCC 2998 = test system: HCC 2998
SF-539 = test system: SF-539
EKVX = test system: EKVX
NCI-H522 = test system: NCI-H522
SF-295 = test system: SF-295
A498 = test system: A498
NCI/ADR-RES = test system: NCI/ADR-RES
OVCAR-4 = test system: OVCAR-4
NCI-H226 = test system: NCI-H226
SK-OV-3 = test system: SK-OV-3
HL-60 = test system: HL-60
RXF 393 = test system: RXF 393
SNB-78 = test system: SNB-78
HOP-62 = test system: HOP-62
Malme-3M = test system: Malme-3M
TK-10 = test system: TK-10
ACHN = test system: ACHN

Measured: GI50

CCNC(=O)C(C)C1CCC2(C)C=CC(=O)C(C)=C2C1O (centres undefined)
inactive: M19-MEL > 100 µM | DMS-114 > 100 µM | HOP-92 > 100 µM | HCC 2998 > 100 µM | SF-539 > 100 µM | EKVX > 100 µM | NCI-H522 > 100 µM | SF-295 > 93.5 µM | A498 > 100 µM | NCI/ADR-RES > 100 µM | OVCAR-4 > 100 µM | NCI-H226 > 100 µM | SK-OV-3 > 100 µM | HL-60 > 100 µM | RXF 393 > 100 µM | SNB-78 > 100 µM | HOP-62 > 100 µM

CC[C@]12C=CCN3CC[C@@]4(c5ccc(OC)cc5N(C)[C@H]4[C@@](O)(C(=O)OC)[C@@H]1OC(C)=O)[C@@H]32
inactive: M19-MEL 57.5 µM | DMS-114 140 µM | HOP-92 46.2 µM | HCC 2998 > 200 µM | SF-539 > 200 µM | Malme-3M > 200 µM | EKVX > 151 µM | NCI-H522 97.9 µM | SF-295 152 µM | A498 102 µM | NCI/ADR-RES 156 µM | OVCAR-4 35.4 µM | NCI-H226 132 µM | SK-OV-3 > 200 µM | HL-60 89.3 µM | RXF 393 96.8 µM | SNB-78 195 µM | HOP-62 171 µM

COc1ccc(C[C@H](N)C(=O)N2C[C@@H](CO)C[C@@H](n3cnc4c(N(C)C)ncnc43)C2)cc1
inactive: TK-10 > 100 µM | M19-MEL > 100 µM | DMS-114 > 100 µM | HOP-92 > 100 µM | SF-539 > 100 µM | Malme-3M > 100 µM | EKVX > 100 µM | NCI-H522 > 100 µM | SF-295 > 100 µM | SK-OV-3 > 100 µM | HL-60 > 100 µM | SNB-78 > 100 µM | HOP-62 > 100 µM

COc1cc(C=O)cc(O)c1O
inactive: TK-10 > 100 µM | M19-MEL > 100 µM | DMS-114 > 100 µM | HCC 2998 > 100 µM | SF-539 > 100 µM | Malme-3M > 100 µM | EKVX > 100 µM | NCI-H522 99.8 µM | SF-295 > 100 µM | NCI-H226 > 100 µM | SK-OV-3 > 100 µM | HL-60 46.7 µM | RXF 393 > 10 µM | ACHN > 100 µM | SNB-78 > 100 µM | HOP-62 > 100 µM
